Experimental data from ChEMBL document CHEMBL2086234, “Phenolic constituents from the rhizomes of Acorus gramineus and their biological evaluation on antitumor and anti-inflammatory activities” (Bioorg Med Chem Lett, 2012).
pIC50: −log10 of the molar value. The source made the active and inactive calls. The rule behind the calls is not given here.

Key:
[1] = Cytotoxicity against mouse BV2 cells assessed as cell viability at 20 uM by MTT assay; assay type: cell-based, BV-2; conditions: read-out: Activity
A549 = experiment: Cytotoxicity against human A549 cells by SRB assay; assay type: functional, cell-based
SK-OV-3 = experiment: Cytotoxicity against human SKOV3 cells by SRB assay; assay type: functional, cell-based
SK-MEL-2 = experiment: Cytotoxicity against human SK-MEL-2 cells by SRB assay; assay type: functional, cell-based
HCT-15 = experiment: Cytotoxicity against human HCT15 cells by SRB assay; assay type: functional, cell-based
BV-2 [2] = experiment: Antiinflammatory activity in mouse BV2 cells assessed as inhibition of LPS-induced NO production treated 30 mins before LPS stimulation measured after 24 hrs by Griess reaction; assay type: functional, cell-based
[3] = biological target: T1, Nitric oxide synthase, inducible (Mus musculus) (UniProt P29477); experiment: Inhibition of iNOS activity in mouse BV2 cells assessed as inhibition of LPS-induced NO production at 20 uM treated 12 hrs before LPS challenge measured after 12 hrs by Griess reaction; assay type: cell-based; conditions: BV-2
T1 sequence (whole entry): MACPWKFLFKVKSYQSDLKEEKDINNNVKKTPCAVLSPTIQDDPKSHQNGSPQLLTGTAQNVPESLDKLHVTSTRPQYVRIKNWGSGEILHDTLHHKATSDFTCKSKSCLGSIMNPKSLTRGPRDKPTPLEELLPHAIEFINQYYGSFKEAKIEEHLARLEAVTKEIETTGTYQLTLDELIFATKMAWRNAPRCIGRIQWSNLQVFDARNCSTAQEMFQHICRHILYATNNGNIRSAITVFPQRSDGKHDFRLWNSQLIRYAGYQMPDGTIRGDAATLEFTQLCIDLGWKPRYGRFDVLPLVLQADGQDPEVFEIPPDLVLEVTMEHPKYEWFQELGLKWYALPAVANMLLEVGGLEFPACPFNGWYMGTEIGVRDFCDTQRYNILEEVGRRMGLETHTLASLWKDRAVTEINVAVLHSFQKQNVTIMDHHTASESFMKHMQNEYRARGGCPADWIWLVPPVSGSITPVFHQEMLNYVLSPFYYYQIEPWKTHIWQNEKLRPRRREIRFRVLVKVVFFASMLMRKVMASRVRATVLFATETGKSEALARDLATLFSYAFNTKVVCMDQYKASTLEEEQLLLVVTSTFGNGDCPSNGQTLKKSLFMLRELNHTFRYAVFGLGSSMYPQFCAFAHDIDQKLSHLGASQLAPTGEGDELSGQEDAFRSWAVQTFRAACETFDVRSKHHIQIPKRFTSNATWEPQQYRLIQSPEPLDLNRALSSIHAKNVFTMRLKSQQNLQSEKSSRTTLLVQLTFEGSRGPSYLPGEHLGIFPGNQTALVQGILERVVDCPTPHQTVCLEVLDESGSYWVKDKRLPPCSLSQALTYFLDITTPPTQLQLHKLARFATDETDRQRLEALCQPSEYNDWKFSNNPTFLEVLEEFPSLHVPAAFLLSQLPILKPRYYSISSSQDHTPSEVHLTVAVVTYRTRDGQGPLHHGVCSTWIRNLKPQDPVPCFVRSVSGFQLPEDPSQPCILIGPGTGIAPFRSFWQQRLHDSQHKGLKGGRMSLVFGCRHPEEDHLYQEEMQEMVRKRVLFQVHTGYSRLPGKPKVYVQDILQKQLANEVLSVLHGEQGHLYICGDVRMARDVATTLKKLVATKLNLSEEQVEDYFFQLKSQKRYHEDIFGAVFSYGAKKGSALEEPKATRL

BV-2 [4] = experiment: Antiinflammatory activity in mouse BV2 cells assessed as inhibition of LPS-induced iNOS protein expression at 10 to 20 uM treated 30 mins before LPS stimulation measured after 6 hrs by Western blot analysis; assay type: functional, cell-based
BV-2 [5] = experiment: Antiinflammatory activity in mouse BV2 cells assessed as inhibition of sodium nitroprusside-induced nitrite accumulation at 10 to 20 uM after 180 mins by Griess reaction; assay type: functional, cell-based

pIC50 (BV-2 [2])	inhibition [3]	Structure (SMILES)	viability at 20 µM [1]	pIC50 (A549)	pIC50 (SK-OV-3)	pIC50 (SK-MEL-2)	pIC50 (HCT-15)	inhibition (BV-2 [4])	inhibition (BV-2 [5])
4.24	–	O=C(CCO)c1ccc(O)cc1	107%	< 4.52	< 4.52	< 4.52	< 4.52	–	–
4.75	Active	COc1cc(CCCO)ccc1O[C@H](C)[C@H](O)c1cc(OC)c(OC)c(OC)c1	88.8%	5.38	4.58	4.85	4.61	–	–
4.85	Active	COc1cc(/C=C\CO)ccc1O	98.4%	4.96	4.88	4.83	4.69	Active	–
3.85	–	COc1cc(CCCO)cc(OC)c1OC	96.3%	< 4.52	< 4.52	< 4.52	< 4.52	–	–
< 3.30	–	COc1ccc(CCCO)cc1OC	103%	4.64	4.93	4.66	4.57	–	–
4.49	–	COc1cc(/C=C\C(=O)NCCc2ccc(O)cc2)ccc1O	100%	< 4.52	< 4.52	< 4.52	< 4.52	–	–
4.26	–	COc1cc(/C=C/C(=O)NC[C@@H](O)c2ccc(O)cc2)ccc1O	98.3%	< 4.52	< 4.52	< 4.52	< 4.52	–	–
4.43	–	COc1cc([C@H](O)[C@@H](CO)Oc2c(OC)cc(CCCO)cc2OC)ccc1O (relative stereo)	106%	< 4.52	< 4.52	4.54	< 4.52	–	–
4.22	–	COc1cc(OC)c([C@H]2[C@@H](C)[C@@H](c3cc(OC)c(OC)cc3OC)O[C@@H]2C)cc1OC (relative stereo)	101%	< 4.52	4.58	4.95	< 4.52	–	–
4.73	–	COc1cc(OC)c([C@@H]2[C@H](C)[C@@H](C)[C@H]2c2cc(OC)c(OC)cc2OC)cc1OC (relative stereo) [MAGNOSALIN]	93.1%	4.71	4.56	5.06	4.64	Active	Active
3.90	–	COc1cc(OC)c(OC)cc1/C=C\CO [ACORAMOL]	105%	< 4.52	< 4.52	4.60	< 4.52	–	–
–	–	COc1cccc2c1C(=O)c1c(O)c3c(c(O)c1C2=O)C[C@@](O)(C(=O)CO)C[C@@H]3O[C@H]1C[C@H](N)[C@H](O)[C@H](C)O1 [DOXORUBICIN]	–	–	8.40	8.40	7.09	–	–
4.76	Active	COc1cc(/C=C/C(=O)NCCc2ccc(O)cc2)ccc1O [N-TRANS-FERULOYL TYRAMINE]	97.8%	< 4.52	< 4.52	< 4.52	< 4.52	Active	Active
5.09	–	COc1cc(CCCO)ccc1O[C@H](C)[C@@H](O)c1cc(OC)c(OC)c(OC)c1 [SURINAMENSINOL B]	76.2%	5.27	4.67	4.98	4.73	–	Active
4.74	–	CNC(=N)NCCC[C@H](N)C(=O)O [TILARGININE]	98.8%	–	–	–	–	–	–
